Source: ChEMBL document CHEMBL5236670 (Bioorg Med Chem Lett, 2023)
The source made the active and inactive calls. The rule behind the calls is not given here.

How the values were obtained:
[1] = Metabolic stability in mouse liver microsomes assessed as compound remaining at 0.5 uM after 10 mins; assay type: ADME, Microsome; details: read-out: Stability
[2] = Metabolic stability in rat liver microsomes assessed as compound remaining at 0.5 uM after 10 mins; assay type: ADME, Microsome; details: read-out: Stability
[3] = Metabolic stability in human liver microsomes assessed as compound remaining at 0.5 uM after 10 mins; assay type: ADME, Microsome; details: read-out: Stability
[4] = target: Glycogen synthase kinase-3 beta (Homo sapiens, UniProt P49841); assay: Inhibition of GSK-3beta (unknown origin) incubated for 1 hr by HTRF assay
[5] = tested on: Mus musculus; assay: Anti-alzheimer activity in triple-transgenic mouse model at 30 mg/kg, po; assay type: functional, organism-based

Sequence of Glycogen synthase kinase-3 beta (P49841 whole entry): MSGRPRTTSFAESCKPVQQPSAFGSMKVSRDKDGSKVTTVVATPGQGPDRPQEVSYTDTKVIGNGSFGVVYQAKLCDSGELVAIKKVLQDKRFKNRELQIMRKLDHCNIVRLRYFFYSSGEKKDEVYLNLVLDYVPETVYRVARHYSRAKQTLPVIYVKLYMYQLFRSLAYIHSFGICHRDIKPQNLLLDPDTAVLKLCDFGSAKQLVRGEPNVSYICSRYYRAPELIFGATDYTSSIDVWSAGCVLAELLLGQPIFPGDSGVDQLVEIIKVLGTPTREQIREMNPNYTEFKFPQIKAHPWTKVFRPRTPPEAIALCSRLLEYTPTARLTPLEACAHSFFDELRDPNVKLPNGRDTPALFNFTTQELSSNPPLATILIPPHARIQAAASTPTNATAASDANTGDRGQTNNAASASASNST

SMILES	remaining at 10 min, 0.5 µM [1] [%]	remaining at 10 min, 0.5 µM [2] [%]	remaining at 10 min, 0.5 µM [3] [%]	IC50 [4] [nM]	Activity [5]
CC1(C)COCCN1c1ccncc1NC(=O)c1ccnc(NC(=O)C2CC2)c1	0.4	0.4	0.9	–	–
O=C(Nc1cncc(-c2ccccc2)c1)c1ccnc(NC(=O)C2CC2)c1	–	–	–	9	–
CC(C)(O)c1ccncc1NC(=O)c1ccnc(NC(=O)C2CC2)c1	27	100	87	0.1	–
O=C(Nc1cncc(-c2cccc(F)c2F)c1)c1ccnc(NC(=O)C2CCC(F)(F)C2)c1 (centres undefined)	–	–	–	2.5	–
CC1(C)CN(c2ccncc2NC(=O)c2ccnc(NC(=O)C3CC3)c2)CCO1	0.4	16	35	–	–
CC(C)C(=O)Nc1cc(C(=O)Nc2cnccc2OCC(C)(F)F)ccn1	–	–	–	1.4	–
O=C(Nc1cnccc1N1CCC(F)(F)CC1)c1ccnc(NC(=O)[C@H]2C[C@@H](Cl)C2)c1	–	–	–	0.16	–
CC(C)C(=O)Nc1cc(C(=O)Nc2cnccc2OCCC(C)(C)O)ccn1	–	–	–	2.8	–
O=C(Nc1cncc(-c2ccccc2F)c1)c1ccnc(NC(=O)C2CC2)c1	90	–	88	3	inactive
O=C(Nc1cncc(-c2cc(F)ccc2F)c1)c1ccnc(NC(=O)C2CC2)c1	–	–	–	3.7	–
O=C(Nc1cnccc1N1CCOCC1)c1ccnc(NC(=O)C2CC2)c1	2	63	84	–	–
O=C(Nc1cnccc1C1CCCCC1)c1ccnc(NC(=O)C2CC2)c1	0.6	0.4	1	–	–
C[C@H]1COCCN1c1ccncc1NC(=O)c1ccnc(NC(=O)C2CC2)c1	0.2	3	9	–	–
O=C(Nc1cnccc1-c1ccc(Cl)cc1)c1ccnc(NC(=O)[C@H]2C[C@@H](F)C2)c1	–	–	–	6.9	–
CC(F)C(=O)Nc1cc(C(=O)Nc2cnccc2-c2ccccc2)ccn1 (centres undefined)	–	–	–	49	–
CC(O)c1ccncc1NC(=O)c1ccnc(NC(=O)C2CC2)c1 (centres undefined)	77	100	100	–	–
C[C@@H]1COCCN1c1ccncc1NC(=O)c1ccnc(NC(=O)C2CC2)c1	0.2	1	4	–	–
C[C@@H]1CN(c2ccncc2NC(=O)c2ccnc(NC(=O)C3CC3)c2)CCO1	3	36	56	–	–
O=C(Nc1cnccc1-c1ccccc1)c1ccnc(NC(=O)C2CCOCC2)c1	–	–	–	4.5	–
O=C(Nc1cnccc1C(O)C(F)(F)F)c1ccnc(NC(=O)C2CC2)c1 (centres undefined)	35	82	86	3.6	–

Now from value to molecule, other results behind:

remaining at 10 min, 0.5 µM [1] [%]	remaining at 10 min, 0.5 µM [2] [%]	remaining at 10 min, 0.5 µM [3] [%]	IC50 [4] [nM]	SMILES	Activity [5]
0.2	6	25	0.19	O=C(Nc1cnccc1N1CCC(F)(F)CC1)c1ccnc(NC(=O)C2CC2)c1	–
–	–	–	2.1	O=C(Nc1cnccc1-c1ccccc1)c1ccnc(NC(=O)C2CCCC2)c1	–
1	6	17	–	O=C(Nc1cnccc1N1CCCCC1)c1ccnc(NC(=O)C2CC2)c1	–
86	100	99	–	O=C(Nc1cnccc1C(F)(F)F)c1ccnc(NC(=O)C2CC2)c1	–
1	40	66	–	C[C@H]1CN(c2ccncc2NC(=O)c2ccnc(NC(=O)C3CC3)c2)CCO1	–
57	79	85	–	O=C(Nc1cnccc1C(=O)C(F)(F)F)c1ccnc(NC(=O)C2CC2)c1	–
3	57	88	–	C=C(C)c1ccncc1NC(=O)c1ccnc(NC(=O)C2CC2)c1	–
–	–	–	0.37	O=C(Nc1cnccc1N1CCC(F)(F)CC1)c1ccnc(NC(=O)[C@H]2C[C@H](Cl)C2)c1	–
–	–	–	1.7	O=C(Nc1cnccc1-c1ccc(Cl)cc1)c1ccnc(NC(=O)[C@H]2C[C@H](F)C2)c1	–
82	97	93	–	Cc1ccncc1NC(=O)c1ccnc(NC(=O)C2CC2)c1	–
0.5	1	7	–	O=C(Nc1cnccc1C1CCCC1)c1ccnc(NC(=O)C2CC2)c1	–
1	43	72	–	O=C(Nc1cnccc1C1CCC1)c1ccnc(NC(=O)C2CC2)c1	–
14	78	87	–	CC(C)c1ccncc1NC(=O)c1ccnc(NC(=O)C2CC2)c1	–
–	–	–	2.6	O=C(Nc1cncc(-c2cccc(F)c2F)c1)c1ccnc(NC(=O)C2CC2)c1	–
–	–	–	5.7	O=C(Nc1cnccc1-c1ccccc1)c1ccnc(NC(=O)C2CCC2)c1	–
4	26	34	–	C[C@@H]1CN(c2ccncc2NC(=O)c2ccnc(NC(=O)C3CC3)c2)C[C@H](C)O1	–
